How the values were obtained:
Format in all cases: in vivo
corn (Zea mays) [1] = assay: Test G Pre-Emergence Protocol; conditions: Zea mays, pre-emergence, 312 h, evaluated after 13 days; for plant injury at 15.625 g/ha: 15.625 g ai/ha; for plant injury at 15.625 g/ha / plant injury at 250 g/ha: read-out: Corn damage rating (100=total damage to plant; 0=no damage to plant); for plant injury at 62.5 g/ha: 62.5 g ai/ha, 100=total damage to plant, 0=no damage to plant, read-out: Corn damage rating; for plant injury at 250 g/ha: 250 g ai/ha
In short: (§1)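 Seeds were sown in standard soil and kept one day in a glasshouse (24/16° C day/night, 14 h light, 65% humidity), then sprayed with compound in acetone/water (50:50) containing 0.5% Tween 20 at 15.625, 62.5 or 250 g/ha. Damage was scored after 13 days (0 = none, 100 = total).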

[2] = system: barnyardgrass (Echinochloa crus-galli); assay: Test G Pre-Emergence Protocol; conditions: Echinochloa crus-galli, pre-emergence, 312 h, evaluated after 13 days; for pest or weed control at 15.625 g/ha: 15.625 g ai/ha; for pest or weed control at 15.625 g/ha / pest or weed control at 250 g/ha: read-out: Barnyardgrass damage rating (100=total damage to plant; 0=no damage to plant); for pest or weed control at 62.5 g/ha: 62.5 g ai/ha, 100=total damage to plant, 0=no damage to plant, read-out: Barnyardgrass damage rating; for pest or weed control at 250 g/ha: 250 g ai/ha
In short: as §1

[3] = system: redroot pigweed (Amaranthus retroflexus); assay: Test G Pre-Emergence Protocol; conditions: Amaranthus retroflexus, pre-emergence, 312 h, evaluated after 13 days; for pest or weed control at 15.625 g/ha: 15.625 g ai/ha; for pest or weed control at 15.625 g/ha / pest or weed control at 250 g/ha: read-out: Pigweed, Redroot damage rating (100=total damage to plant; 0=no damage to plant); for pest or weed control at 62.5 g/ha: 62.5 g ai/ha, 100=total damage to plant, 0=no damage to plant, read-out: Pigweed, Redroot damage rating; for pest or weed control at 250 g/ha: 250 g ai/ha
In short: as §1

[4] = system: ivy-leaved morning glory (Ipomoea hederacea); assay: Test G Pre-Emergence Protocol; conditions: Ipomoea, pre-emergence, 312 h, evaluated after 13 days; for pest or weed control at 15.625 g/ha: 15.625 g ai/ha; for pest or weed control at 15.625 g/ha / pest or weed control at 250 g/ha: read-out: Morningglory, Ivy-leaved damage rating (100=total damage to plant; 0=no damage to plant); for pest or weed control at 62.5 g/ha: 62.5 g ai/ha, 100=total damage to plant, 0=no damage to plant, read-out: Morningglory, Ivy-leaved damage rating; for pest or weed control at 250 g/ha: 250 g ai/ha
In short: as §1

[5] = system: velvetleaf (Abutilon theophrasti); assay: Test G Pre-Emergence Protocol; conditions: Abutilon theophrasti, pre-emergence, 312 h, evaluated after 13 days; for pest or weed control at 15.625 g/ha: 15.625 g ai/ha; for pest or weed control at 15.625 g/ha / pest or weed control at 250 g/ha: read-out: Velvetleaf damage rating (100=total damage to plant; 0=no damage to plant); for pest or weed control at 62.5 g/ha: 62.5 g ai/ha, 100=total damage to plant, 0=no damage to plant, read-out: Velvetleaf damage rating; for pest or weed control at 250 g/ha: 250 g ai/ha
In short: as §1

[6] = system: giant foxtail (Setaria faberi); assay: Test G Pre-Emergence Protocol; conditions: Setaria faberi, pre-emergence, 312 h, evaluated after 13 days; for pest or weed control at 15.625 g/ha: 15.625 g ai/ha; for pest or weed control at 15.625 g/ha / pest or weed control at 250 g/ha: read-out: Foxtail, Giant damage rating (100=total damage to plant; 0=no damage to plant); for pest or weed control at 62.5 g/ha: 62.5 g ai/ha, 100=total damage to plant, 0=no damage to plant, read-out: Foxtail, Giant damage rating; for pest or weed control at 250 g/ha: 250 g ai/ha
In short: as §1

corn (Zea mays) [7] = assay: Test G Post-Emergence Protocol; conditions: Zea mays, post-emergence, 312 h, read-out: Corn damage rating; for plant injury at 15.625 g/ha: 15.625 g ai/ha, evaluated after 13 days (100=total damage to plant; 0=no damage to plant); for plant injury at 62.5 g/ha: 62.5 g ai/ha; for plant injury at 62.5 g/ha / plant injury at 250 g/ha: evaluated after 13 days, 100=total damage to plant, 0=no damage to plant; for plant injury at 250 g/ha: 250 g ai/ha
In short: (§2)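 Sow in soil; grow 8 d (24/16 °C, 14 h light, 65% humidity); spray 15.625/62.5/250 g/ha in acetone:water 50:50 + 0.5% Tween 20; grow on, water twice daily; score damage 0–100 at 13 d.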

[8] = system: barnyardgrass (Echinochloa crus-galli); assay: Test G Post-Emergence Protocol; conditions: Echinochloa crus-galli, post-emergence, 312 h, read-out: Barnyardgrass damage rating; for pest or weed control at 15.625 g/ha: 15.625 g ai/ha, evaluated after 13 days (100=total damage to plant; 0=no damage to plant); for pest or weed control at 62.5 g/ha: 62.5 g ai/ha; for pest or weed control at 62.5 g/ha / pest or weed control at 250 g/ha: evaluated after 13 days, 100=total damage to plant, 0=no damage to plant; for pest or weed control at 250 g/ha: 250 g ai/ha
In short: as §2

[9] = system: redroot pigweed (Amaranthus retroflexus); assay: Test G Post-Emergence Protocol; conditions: Amaranthus retroflexus, post-emergence, 312 h, read-out: Pigweed, Redroot damage rating; for pest or weed control at 15.625 g/ha: 15.625 g ai/ha, evaluated after 13 days (100=total damage to plant; 0=no damage to plant); for pest or weed control at 62.5 g/ha: 62.5 g ai/ha; for pest or weed control at 62.5 g/ha / pest or weed control at 250 g/ha: evaluated after 13 days, 100=total damage to plant, 0=no damage to plant; for pest or weed control at 250 g/ha: 250 g ai/ha
In short: as §2

[10] = system: ivy-leaved morning glory (Ipomoea hederacea); assay: Test G Post-Emergence Protocol; conditions: Ipomoea, post-emergence, 312 h, read-out: Morningglory, Ivy-leaved damage rating; for pest or weed control at 15.625 g/ha: 15.625 g ai/ha, evaluated after 13 days (100=total damage to plant; 0=no damage to plant); for pest or weed control at 62.5 g/ha: 62.5 g ai/ha; for pest or weed control at 62.5 g/ha / pest or weed control at 250 g/ha: evaluated after 13 days, 100=total damage to plant, 0=no damage to plant; for pest or weed control at 250 g/ha: 250 g ai/ha
In short: as §2

[11] = system: velvetleaf (Abutilon theophrasti); assay: Test G Post-Emergence Protocol; conditions: Abutilon theophrasti, post-emergence, 312 h, read-out: Velvetleaf damage rating; for pest or weed control at 15.625 g/ha: 15.625 g ai/ha, evaluated after 13 days (100=total damage to plant; 0=no damage to plant); for pest or weed control at 62.5 g/ha: 62.5 g ai/ha; for pest or weed control at 62.5 g/ha / pest or weed control at 250 g/ha: evaluated after 13 days, 100=total damage to plant, 0=no damage to plant; for pest or weed control at 250 g/ha: 250 g ai/ha
In short: as §2

[12] = system: giant foxtail (Setaria faberi); assay: Test G Post-Emergence Protocol; conditions: Setaria faberi, post-emergence, 312 h, read-out: Foxtail, Giant damage rating; for pest or weed control at 15.625 g/ha: 15.625 g ai/ha, evaluated after 13 days (100=total damage to plant; 0=no damage to plant); for pest or weed control at 62.5 g/ha: 62.5 g ai/ha; for pest or weed control at 62.5 g/ha / pest or weed control at 250 g/ha: evaluated after 13 days, 100=total damage to plant, 0=no damage to plant; for pest or weed control at 250 g/ha: 250 g ai/ha
In short: as §2

| Structure (SMILES) | plant injury at 15.625 g/ha (corn (Zea mays) [1]) [%] | plant injury at 62.5 g/ha (corn (Zea mays) [1]) [%] | plant injury at 250 g/ha (corn (Zea mays) [1]) [%] | pest or weed control at 15.625 g/ha [2] [%] | pest or weed control at 62.5 g/ha [2] [%] | pest or weed control at 250 g/ha [2] [%] | pest or weed control at 15.625 g/ha [3] [%] | pest or weed control at 62.5 g/ha [3] [%] | pest or weed control at 250 g/ha [3] [%] | pest or weed control at 15.625 g/ha [4] [%] | pest or weed control at 62.5 g/ha [4] [%] | pest or weed control at 250 g/ha [4] [%] | pest or weed control at 15.625 g/ha [5] [%] | pest or weed control at 62.5 g/ha [5] [%] | pest or weed control at 250 g/ha [5] [%] | pest or weed control at 15.625 g/ha [6] [%] | pest or weed control at 62.5 g/ha [6] [%] | pest or weed control at 250 g/ha [6] [%] | plant injury at 15.625 g/ha (corn (Zea mays) [7]) [%] | plant injury at 62.5 g/ha (corn (Zea mays) [7]) [%] | other results |
| --- | --- | --- | --- | --- | --- | --- | --- | --- | --- | --- | --- | --- | --- | --- | --- | --- | --- | --- | --- | --- | --- |
| CN1C[C@H](c2cccc(C(F)(F)F)c2)[C@@H](C(=O)Nc2cccnc2F)C1=O (racemic) [Compound 1809] | 60 | 80 | 90 | 90 | 80 | 90 | 0 | 0 | 60 | 10 | 70 | 80 | 0 | 0 | 50 | 90 | 90 | 90 | 80 | 80 | plant injury at 250 g/ha (corn (Zea mays) [7]): 80%; pest or weed control at 15.625 g/ha [8]: 80%; pest or weed control at 62.5 g/ha [8]: 80%; pest or weed control at 250 g/ha [8]: 80%; pest or weed control at 15.625 g/ha [9]: 20%; pest or weed control at 62.5 g/ha [9]: 20%; pest or weed control at 250 g/ha [9]: 50%; pest or weed control at 15.625 g/ha [10]: 20%; pest or weed control at 62.5 g/ha [10]: 70%; pest or weed control at 250 g/ha [10]: 70%; pest or weed control at 15.625 g/ha [11]: 0%; pest or weed control at 62.5 g/ha [11]: 0%; pest or weed control at 250 g/ha [11]: 40%; pest or weed control at 15.625 g/ha [12]: 80%; pest or weed control at 62.5 g/ha [12]: 80%; pest or weed control at 250 g/ha [12]: 80% |
| C=Cc1cccc([C@@H]2CN(C)C(=O)[C@H]2C(=O)Nc2cccc(F)c2F)c1 (racemic) [Compound 1762] | 0 | 30 | 80 | 70 | 80 | 80 | 0 | 10 | 20 | 0 | 10 | 10 | 0 | 0 | 10 | 70 | 80 | 80 | 20 | 30 | plant injury at 250 g/ha (corn (Zea mays) [7]): 80%; pest or weed control at 15.625 g/ha [8]: 10%; pest or weed control at 62.5 g/ha [8]: 50%; pest or weed control at 250 g/ha [8]: 80%; pest or weed control at 15.625 g/ha [9]: 20%; pest or weed control at 62.5 g/ha [9]: 0%; pest or weed control at 250 g/ha [9]: 10%; pest or weed control at 15.625 g/ha [10]: 30%; pest or weed control at 62.5 g/ha [10]: 60%; pest or weed control at 250 g/ha [10]: 70%; pest or weed control at 15.625 g/ha [11]: 10%; pest or weed control at 62.5 g/ha [11]: 0%; pest or weed control at 250 g/ha [11]: 70%; pest or weed control at 15.625 g/ha [12]: 60%; pest or weed control at 62.5 g/ha [12]: 70%; pest or weed control at 250 g/ha [12]: 80% |

From patent publication US12077503B2, “Substituted cyclic amides and their use as herbicides” (FMC CORPORATION, priority 2015, dated 2024)
